# Legend:
# [1] = release of ionically bound or physically entrapped drugs and dyes from hydrogels; assay type: physicochemical
# Method: Samples containing 9.8, 19.5, and 39.1 mg brilliant blue per gram of PAG either with or without calcium (which enhances gelling) were studied over a period of several weeks.
# KB cells = assay: standard cytotoxicity assay with KB cells
# Method: The activity of covalently bound daunomycin released from 6 wt % PAG gels was tested using KB cells in a standard cytotoxicity assay. Gels containing either zero, 13.3 or 30 mg of drug per gram of PAG were incubated in sterile media at 37° C. which was tested and replaced weekly.
# The biocompatibility of PAG has been tested in vitro.
# Sodium periodate, adipic dihydrazide, ethylene glycol, and calcium chloride were purchased from Aldrich Chemical Company (Milwaukee, Wis.) and were used as received. Daunomycin hydrochloride was purchased from Fluka Chemical Corporation (Ronkonkoma, N.Y.). Dulbecco's Modified Eagle's Medium (DMEM) was purchased from Life Technologies (Grand Island, N.Y.). […] The elution of the drug was monitored at 480 nm. • Synthesis of the poly(aldehyde guluronate), PAG. […] The product was analyzed by ^1H-NMR, FTIR, and the aldehyde content was quantified using trinitrobenzene sulfonic acid. • Preparation of cross-linked PAG hydrogels. […] To quantify the amount of daunomycin that is incorporated in the gels, two sets of hydrogels were formed as described above. […] The solutions were then sonicated for 30 minutes, quantitatively transferred to 5 ml volumetric flasks, and diluted with double distilled water. […]
# [2] = in vitro release of daunomycin from cross-linked PAG hydrogels; assay type: physicochemical
# [3] = determination of the drug incorporated (retained) in PAG hydrogel; assay type: physicochemical; details: lyophilized, crushed PAG hydrogel extracted with water
# Method: The reaction described in Example 2 was utilized to incorporate daunomycin into hydrogels for localized drug delivery. HPLC was used to determine the amount of daunomycin that reacted with adipic dihydrazide before the addition of PAG. Mixtures of daunomycin and adipic dihydrazide were analyzed and found to contain 88.5% of the daunomycin-adipic dihydrazide conjugate and 11.5% of free drug (FIG. 21). The amount of daunomycin that was covalently incorporated into the hydrogel was next determined by quantifying the amount of free drug in the hydrogel. Hydrogels containing daunomycin or trypan blue were synthesized, frozen, lyophilized, and crushed to form powders. The free drug was then dissolved in water and the resulting mixture was filtered to remove any fine particles. The concentration of the free drug was then determined spectrophotometrically. […] Only two percent of the trypan blue was retained in the hydrogel. In comparison, 86.9±0.1% of daunomycin remained in the gelatinous particles. Moreover, hydrogels containing trypan blue that were incubated in DMEM released the entire drug within 24 hours. These findings clearly indicate that daunomycin is covalently coupled to the hydrogel through the adipic dihydrazide molecule. The daunomycin incorporation in the hydrogels correlates well with the percentage of daunomycin-adipic dihydrazide conjugate that was determined by HPLC analysis. […]
smiles,measurement,setting,value
CN(Cc1cnc2nc(N)nc(N)c2n1)c1ccc(C(=O)N[C@@H](CCC(=O)O)C(=O)O)cc1 [Methotrexate],time to quantitative release from the hydrogels,"[1]; physically entrapped, diffusion, all conditions",≤ 5 days
O=C1c2c(O)ccc(O)c2C(=O)c2c(NCCNCCO)ccc(NCCNCCO)c21 [Mitoxantrone],"cytotoxicity of drug alone versus mixed with AAD (prodrug formation, FIG. 9)",KB cells; mixed with AAD,not found to form a prodrug
COc1cccc2c1C(=O)c1c(O)c3c(c(O)c1C2=O)C[C@@](O)(C(C)=O)C[C@@H]3O[C@H]1C[C@H](N)[C@H](O)[C@H](C)O1 [daunomycin],drug released during the first six weeks,"[2]; 6% w/w PAG, 150 mM AAD, 40 mM calcium",40%
same,release rate of drug from hydrogel,"[2]; 6% w/w PAG, 150 mM AAD, 40 mM calcium, first six weeks",0.8 % drug per day
same,time to release of all incorporated drug,"[2]; 6% w/w PAG, 150 mM AAD, absence of calcium",four
same,release rate of drug from hydrogel,"[2]; 6% w/w PAG, 150 mM adipic dihydrazide, acidic medium",1.8 % per day
same,release rate of drug from hydrogel,"[2]; 6% w/w PAG, 150 mM adipic dihydrazide, neutral condition",1 % per day
same,time to release of total incorporated drug,"[2]; 6 wt % PAG, 8 mM daunomycin, 150 mM AAD",thirty
same,release rate of drug from hydrogel,"[2]; 6 wt % PAG, 8 mM daunomycin, 150 mM AAD, first ten days, DMEM 37° C.",1 % drug per day
same,release rate of drug from hydrogel,"[2]; 6 wt % PAG, 8 mM daunomycin, 150 mM AAD, following twenty-two days",approximately 4 % per day
same,time to release of total drug loaded,"[2]; 6 wt % PAG, 50 mM AAD cross-linker",two
same,time to release of total drug loaded,"[2]; 6 wt % PAG, 100 mM AAD",two
same,time to release of total drug loaded,"[2]; 6 wt % PAG, elevated AAD concentrations",more than six
same,fraction retained in the hydrogel particles,[3],86.9±0.1%
same,IC50,"KB cells; Homo sapiens, KB, 48 h",202 ± 48 nM
Cc1cc(-c2ccc(/N=N/c3c(S(=O)(=O)O)cc4cc(S(=O)(=O)O)cc(N)c4c3O)c(C)c2)ccc1/N=N/c1c(S(=O)(=O)O)cc2cc(S(=O)(=O)O)cc(N)c2c1O [trypan blue],fraction retained in the hydrogel particles,[3],two
same,time to release of the entire drug from hydrogel,[1]; PAG hydrogels incubated in DMEM,≤ 24 h

# From US7186413B2, “Hydrogels and water soluble polymeric carriers for drug delivery” (The Regents of the University of Michigan, priority 1998, dated 2007)
